Measurements as given in the supplement of paper PMC10307832.

What was measured:
Assay in all cases: relative viability (nuclei count vs DMSO), 5 days (fraction); higher = more cells survive
RERF-LC-KJ = tested on: RERF-LC-KJ
Summary of the method: (§1)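 Relative viability divides the nuclei count in treated wells by that in vehicle wells. Lung cancer cell lines were seeded in 1536-well plates, dosed by pin tool the next day, and fixed and stained after 5 days in one step with final 0.05% Triton X-100, 1% formaldehyde and 1 ug/ml Hoechst. Dosing was a single drug or a fixed anchor-drug dose plus five library-drug doses (not always all listed) in √10 steps, and values are medians of duplicate plates imaged at 4×.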

NCI-H1944 = tested on: NCI-H1944
Summary of the method: as §1

NCI-H650 = tested on: NCI-H650
Summary of the method: as §1

NCI-H838 = tested on: NCI-H838
Summary of the method: as §1

NCI-H520 = tested on: NCI-H520
Summary of the method: as §1

PC-3 [JPC-3] = tested on: PC-3 [JPC-3]
Summary of the method: as §1

NCI-H1651 = tested on: NCI-H1651
Summary of the method: as §1

NCI-H1299 = tested on: NCI-H1299
Summary of the method: as §1

NCI-H1703 = tested on: NCI-H1703
Summary of the method: as §1

IA-LM = tested on: IA-LM
Summary of the method: as §1

A549 = tested on: A549
Summary of the method: as §1

Calu-6 = tested on: Calu-6
Summary of the method: as §1

EBC-1 = tested on: EBC-1
Summary of the method: as §1

Nc1ccn([C@@H]2O[C@H](CO)[C@@H](O)[C@@H]2O)c(=O)n1 [Cytarabine] + C[C@]1(O)C[C@@H](c2nc(-c3ccc4ccc(-c5ccccc5)nc4c3)c3c(N)nccn32)C1 [Linsitinib] (partner 1 µM)
relative viability (RERF-LC-KJ; first compound 0.005 µM): 0.771
relative viability (RERF-LC-KJ; first compound 0.01581 µM): 0.787
relative viability (RERF-LC-KJ; first compound 0.05 µM): 0.757
relative viability (RERF-LC-KJ; first compound 0.1581 µM): 0.474
relative viability (RERF-LC-KJ; first compound 0.5 µM): 0.458
relative viability (NCI-H1944; first compound 0.005 µM): 1.1
relative viability (NCI-H1944; first compound 0.01581 µM): 0.492
relative viability (NCI-H1944; first compound 0.05 µM): 0.424
relative viability (NCI-H1944; first compound 0.1581 µM): 0.216
relative viability (NCI-H1944; first compound 0.5 µM): 0.195
relative viability (NCI-H650; first compound 0.005 µM): 0.763
relative viability (NCI-H650; first compound 0.01581 µM): 0.475
relative viability (NCI-H650; first compound 0.05 µM): 0.379
relative viability (NCI-H650; first compound 0.1581 µM): 0.209
relative viability (NCI-H650; first compound 0.5 µM): 0.234
relative viability (NCI-H838; first compound 0.005 µM): 1.07
relative viability (NCI-H838; first compound 0.01581 µM): 1.01
relative viability (NCI-H838; first compound 0.05 µM): 0.875
relative viability (NCI-H838; first compound 0.1581 µM): 0.418
relative viability (NCI-H838; first compound 0.5 µM): 0.295
relative viability (NCI-H520; first compound 0.005 µM): 0.556
relative viability (NCI-H520; first compound 0.01581 µM): 1.09
relative viability (NCI-H520; first compound 0.05 µM): 0.952
relative viability (NCI-H520; first compound 0.1581 µM): 0.751
relative viability (NCI-H520; first compound 0.5 µM): 0.752
relative viability (PC-3 [JPC-3]; first compound 0.005 µM): 0.889
relative viability (PC-3 [JPC-3]; first compound 0.01581 µM): 0.903
relative viability (PC-3 [JPC-3]; first compound 0.05 µM): 0.866
relative viability (PC-3 [JPC-3]; first compound 0.1581 µM): 0.691
relative viability (PC-3 [JPC-3]; first compound 0.5 µM): 0.65
relative viability (NCI-H1651; first compound 0.005 µM): 0.916
relative viability (NCI-H1651; first compound 0.01581 µM): 0.98
relative viability (NCI-H1651; first compound 0.05 µM): 1.11
relative viability (NCI-H1651; first compound 0.1581 µM): 0.468
relative viability (NCI-H1651; first compound 0.5 µM): 0.327
relative viability (NCI-H1299; first compound 0.005 µM): 0.928
relative viability (NCI-H1299; first compound 0.01581 µM): 1.07
relative viability (NCI-H1299; first compound 0.05 µM): 1
relative viability (NCI-H1299; first compound 0.1581 µM): 1.05
relative viability (NCI-H1299; first compound 0.5 µM): 0.886
relative viability (NCI-H1703; first compound 0.005 µM): 0.339
relative viability (NCI-H1703; first compound 0.01581 µM): 0.346
relative viability (NCI-H1703; first compound 0.05 µM): 0.166
relative viability (NCI-H1703; first compound 0.1581 µM): 0.107
relative viability (NCI-H1703; first compound 0.5 µM): 0.0904
relative viability (IA-LM; first compound 0.005 µM): 0.326
relative viability (IA-LM; first compound 0.01581 µM): 0.763
relative viability (IA-LM; first compound 0.05 µM): 0.357
relative viability (IA-LM; first compound 0.1581 µM): 0.243
relative viability (IA-LM; first compound 0.5 µM): 0.201
relative viability (A549; first compound 0.005 µM): 0.579
relative viability (A549; first compound 0.01581 µM): 0.499
relative viability (A549; first compound 0.05 µM): 0.407
relative viability (A549; first compound 0.1581 µM): 0.0819
relative viability (A549; first compound 0.5 µM): 0.0375
relative viability (Calu-6; first compound 0.005 µM): 0.928
relative viability (Calu-6; first compound 0.01581 µM): 0.871
relative viability (Calu-6; first compound 0.05 µM): 0.734
relative viability (Calu-6; first compound 0.1581 µM): 0.444
relative viability (Calu-6; first compound 0.5 µM): 0.283
relative viability (EBC-1; first compound 0.005 µM): 0.742
relative viability (EBC-1; first compound 0.01581 µM): 0.815
relative viability (EBC-1; first compound 0.05 µM): 0.614
relative viability (EBC-1; first compound 0.1581 µM): 0.461
relative viability (EBC-1; first compound 0.5 µM): 0.296

Nc1ccn([C@@H]2O[C@H](CO)[C@@H](O)[C@@H]2O)c(=O)n1 [Cytarabine] + Cc1nc(NC(=O)N2CCC[C@H]2C(N)=O)sc1-c1ccnc(C(C)(C)C(F)(F)F)c1 [Alpelisib] (partner 2 µM)
relative viability (RERF-LC-KJ; first compound 0.005 µM): 0.742
relative viability (RERF-LC-KJ; first compound 0.01581 µM): 0.657
relative viability (RERF-LC-KJ; first compound 0.05 µM): 0.864
relative viability (RERF-LC-KJ; first compound 0.1581 µM): 0.499
relative viability (RERF-LC-KJ; first compound 0.5 µM): 0.36
relative viability (NCI-H1944; first compound 0.005 µM): 0.563
relative viability (NCI-H1944; first compound 0.01581 µM): 0.361
relative viability (NCI-H1944; first compound 0.05 µM): 0.364
relative viability (NCI-H1944; first compound 0.1581 µM): 0.183
relative viability (NCI-H1944; first compound 0.5 µM): 0.144
relative viability (NCI-H650; first compound 0.005 µM): 0.732
relative viability (NCI-H650; first compound 0.01581 µM): 0.81
relative viability (NCI-H650; first compound 0.05 µM): 0.468
relative viability (NCI-H650; first compound 0.1581 µM): 0.218
relative viability (NCI-H650; first compound 0.5 µM): 0.224
relative viability (NCI-H838; first compound 0.005 µM): 0.886
relative viability (NCI-H838; first compound 0.01581 µM): 1.12
relative viability (NCI-H838; first compound 0.05 µM): 0.909
relative viability (NCI-H838; first compound 0.1581 µM): 0.452
relative viability (NCI-H838; first compound 0.5 µM): 0.252
relative viability (NCI-H520; first compound 0.005 µM): 0.697
relative viability (NCI-H520; first compound 0.01581 µM): 0.754
relative viability (NCI-H520; first compound 0.05 µM): 0.858
relative viability (NCI-H520; first compound 0.1581 µM): 0.688
relative viability (NCI-H520; first compound 0.5 µM): 0.447
relative viability (PC-3 [JPC-3]; first compound 0.005 µM): 0.95
relative viability (PC-3 [JPC-3]; first compound 0.01581 µM): 0.926
relative viability (PC-3 [JPC-3]; first compound 0.05 µM): 0.927
relative viability (PC-3 [JPC-3]; first compound 0.1581 µM): 0.634
relative viability (PC-3 [JPC-3]; first compound 0.5 µM): 0.65
relative viability (NCI-H1651; first compound 0.005 µM): 0.817
relative viability (NCI-H1651; first compound 0.01581 µM): 1.01
relative viability (NCI-H1651; first compound 0.05 µM): 1.17
relative viability (NCI-H1651; first compound 0.1581 µM): 0.401
relative viability (NCI-H1651; first compound 0.5 µM): 0.261
relative viability (NCI-H1299; first compound 0.005 µM): 1.13
relative viability (NCI-H1299; first compound 0.01581 µM): 1.21
relative viability (NCI-H1299; first compound 0.05 µM): 1.13
relative viability (NCI-H1299; first compound 0.1581 µM): 1
relative viability (NCI-H1299; first compound 0.5 µM): 1.06
relative viability (NCI-H1703; first compound 0.005 µM): 0.294
relative viability (NCI-H1703; first compound 0.01581 µM): 0.22
relative viability (NCI-H1703; first compound 0.05 µM): 0.194
relative viability (NCI-H1703; first compound 0.1581 µM): 0.117
relative viability (NCI-H1703; first compound 0.5 µM): 0.143
relative viability (IA-LM; first compound 0.005 µM): 0.784
relative viability (IA-LM; first compound 0.01581 µM): 0.591
relative viability (IA-LM; first compound 0.05 µM): 0.701
relative viability (IA-LM; first compound 0.1581 µM): 0.259
relative viability (IA-LM; first compound 0.5 µM): 0.114
relative viability (A549; first compound 0.005 µM): 0.596
relative viability (A549; first compound 0.01581 µM): 0.479
relative viability (A549; first compound 0.05 µM): 0.399
relative viability (A549; first compound 0.1581 µM): 0.0482
relative viability (A549; first compound 0.5 µM): 0.0328
relative viability (Calu-6; first compound 0.005 µM): 0.925
relative viability (Calu-6; first compound 0.01581 µM): 0.826
relative viability (Calu-6; first compound 0.05 µM): 0.79
relative viability (Calu-6; first compound 0.1581 µM): 0.483
relative viability (Calu-6; first compound 0.5 µM): 0.288
relative viability (EBC-1; first compound 0.005 µM): 0.694
relative viability (EBC-1; first compound 0.01581 µM): 0.64
relative viability (EBC-1; first compound 0.05 µM): 0.676
relative viability (EBC-1; first compound 0.1581 µM): 0.439
relative viability (EBC-1; first compound 0.5 µM): 0.248
